What all share (assay type): cell-based, human
Assay [1] deals with gluten-reactive T cells. Kind of assay: Cytokine release assays taken together (IFNγ ELISpot, whole blood IFNγ and IP-10, in-tube IFNγ ELISA). As to conditions: blood collected after oral gluten challenge. Put shortly: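 Whole blood with peptides (P3 0.05-50 μg/mL; P13/P14 0.025-25 μM; […]), 24 h, 37 °C; plasma IFNγ/IP-10 by multiplex beads. Tube assay: 1 mL blood with P3 or CEF, 24 h, plasma IFNγ ELISA; elevated if >7.2 pg/mL above medium tube and SI >1.25. ELISpot overnight on fresh PBMC.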

In assay [2] the test system is gluten-reactive T cells. Kind of assay: 96-well plate whole blood cytokine release, IP-10 by MAGPIX multiplex bead assay. As to conditions: for Percent of maximal response to individual gluten peptides, IP-10: after oral gluten challenge; for IP-10 WB MAGPIX % max Mean: n = 10, blood after oral gluten challenge, individual peptides 5 μM (Peptide 2* of P14, Pepscan: 10 μg/mL (5.45 μM)).

The test system of assay [3] is gluten-reactive T cells. Kind of assay: 96-well plate whole blood cytokine release, IFNγ by MAGPIX multiplex bead assay. To be noted: for Percent of maximal response to individual gluten peptides, IFNg: after oral gluten challenge; for IFNγ WB MAGPIX % max Mean: n = 8, blood after oral gluten challenge, individual peptides 5 μM (Peptide 2* of P14, Pepscan: 10 μg/mL (5.45 μM)).

[4] abbreviates: whole blood incubations after oral gluten challenge.

Non-standard residues stand in square brackets, D forms with d. pGlu = O=C1CC[C@@H](C(=O)O)N1

With “(pE)PEQPIPEQPQPYPQQ-amide ([pGlu]PEQPIPEQPQPYPQQ-NH2; SMILES CC[C@H](C)[C@H](NC(=O)[C@@H]1CCCN1C(=O)[C@H](CCC(N)=O)NC(=O)[C@H](CCC(=O)O)NC(=O)[C@@H]1CCCN1C(=O)[C@@H]1CCC(=O)N1)C(=O)N1CCC[C@H]1C(=O)N[C@@H](CCC(=O)O)C(=O)N[C@@H](CCC(N)=O)C(=O)N1CCC[C@H]1C(=O)N[C@@H](CCC(N)=O)C(=O)N1CCC[C@H]1C(=O)N[C@@H](Cc1ccc(O)cc1)C(=O)N1CCC[C@H]1C(=O)N[C@@H](CCC(N)=O)C(=O)N[C@@H](CCC(N)=O)C(N)=O) [Peptide 3]”, the “rank of activity among individual gluten peptides” value in assay [1] was “second most active”. Further, the “Percent of maximal response to individual gluten peptides, IP-10” value (from here on “Percent of maximal response … IP-10”) in assay [2] (Subject 1, Max. 2331 pg/mL) was 51 % of max; in assay [2] (Subject 2, Max. 3646 pg/mL), 14 % of max; in assay [2] (Subject 3, Max. 9492 pg/mL) it was ≥ 100 % of max; in assay [2] (Subject 4, Max. 9463 pg/mL), ≥ 100 % of max; in assay [2] (Subject 5, Max. 9336 pg/mL), 53 % of max; in assay [2] (Subject 6, Max. 5863 pg/mL) it was 43 % of max. The “Percent of maximal response … IP-10” value was 5 % of max in assay [2] (Subject 7, Max. 2330 pg/mL); 100 % of max in assay [2] (Subject 8, Max. 4019 pg/mL); 85 % of max in assay [2] (Subject 9, Max. 8349 pg/mL); ≥ 100 % of max in assay [2] (Subject 10, Max. 8922 pg/mL). Moreover, the “IP-10 WB MAGPIX % max Mean” value in assay [2] is recorded as 65 % max. Further, the “whole blood IP-10 release relative to that stimulated by Peptide 14” value in assay [2] (setting [4]) was “one-quarter less”. Moreover, the “Percent of maximal response to individual gluten peptides, IFNg” value (“Percent of maximal response … IFNg” below) in assay [3] (Subject 2, Max. 116 pg/mL) is 35 % of max; in assay [3] (Subject 3, Max. 799 pg/mL) it was 92 % of max; in assay [3] (Subject 4, Max. 136 pg/mL) it was 66 % of max; in assay [3] (Subject 6, Max. 72 pg/mL), 63 % of max; in assay [3] (Subject 7, Max. 17 pg/mL) it was 6 % of max; in assay [3] (Subject 8, Max. 47 pg/mL), 89 % of max. The “Percent of maximal response … IFNg” value in assay [3] (Subject 9, Max. 67 pg/mL) is on record as 60 % of max; in assay [3] (Subject 10, Max. 229 pg/mL), 81 % of max. In addition, in assay [3], the “IFNγ WB MAGPIX % max Mean” value is 62 % max. In assay [3] (setting [4]), the “whole blood IFNγ release relative to that stimulated by Peptide 14” value is “one-third less”.

For “(pE)PQPYPEQPQPFPQQ-amide ([pGlu]PQPYPEQPQPFPQQ-NH2; SMILES NC(=O)CC[C@H](NC(=O)[C@H](CCC(N)=O)NC(=O)[C@@H]1CCCN1C(=O)[C@H](Cc1ccccc1)NC(=O)[C@@H]1CCCN1C(=O)[C@H](CCC(N)=O)NC(=O)[C@@H]1CCCN1C(=O)[C@H](CCC(N)=O)NC(=O)[C@H](CCC(=O)O)NC(=O)[C@@H]1CCCN1C(=O)[C@H](Cc1ccc(O)cc1)NC(=O)[C@@H]1CCCN1C(=O)[C@H](CCC(N)=O)NC(=O)[C@@H]1CCCN1C(=O)[C@@H]1CCC(=O)N1)C(N)=O) [Peptide 8]”, in assay [1], the “activity relative to Peptide 14 in the cytokine release assays” value is “approximately one-half to one-fifth as active as Peptide 14”. For the same substance, the “Percent of maximal response … IP-10” value is on record as 0 % of max in assay [2] (Subject 1, Max. 2331 pg/mL); 5 % of max in assay [2] (Subject 2, Max. 3646 pg/mL); ≥ 100 % of max in assay [2] (Subject 3, Max. 9492 pg/mL); ≥ 100 % of max in assay [2] (Subject 4, Max. 9463 pg/mL); 45 % of max in assay [2] (Subject 5, Max. 9336 pg/mL); 2 % of max in assay [2] (Subject 6, Max. 5863 pg/mL). In addition, the “Percent of maximal response … IP-10” value is 0 % of max in assay [2] (Subject 7, Max. 2330 pg/mL); 39 % of max in assay [2] (Subject 8, Max. 4019 pg/mL); 31 % of max in assay [2] (Subject 9, Max. 8349 pg/mL); 94 % of max in assay [2] (Subject 10, Max. 8922 pg/mL). Besides, the “IP-10 WB MAGPIX % max Mean” value in assay [2] was determined as 42 % max. The “Percent of maximal response … IFNg” value is given as 35 % of max in assay [3] (Subject 2, Max. 116 pg/mL); 24 % of max in assay [3] (Subject 3, Max. 799 pg/mL); 39 % of max in assay [3] (Subject 4, Max. 136 pg/mL); 6 % of max in assay [3] (Subject 6, Max. 72 pg/mL); 0 % of max in assay [3] (Subject 7, Max. 17 pg/mL); 42 % of max in assay [3] (Subject 8, Max. 47 pg/mL). In addition, the “Percent of maximal response … IFNg” value is on record as 5 % of max in assay [3] (Subject 9, Max. 67 pg/mL) and 45 % of max in assay [3] (Subject 10, Max. 229 pg/mL). For the same substance, in assay [3], the “IFNγ WB MAGPIX % max Mean” value stood at 25 % max.

The values are drawn from patent publication US20170045513A1, “METHODS OF DIAGNOSING CELIAC DISEASE USING IP-10” (ImmusanT, Inc., priority 2014, published 2017).
